The source of these data is PubChem BioAssay (NCI).

The structures appear in SMILES notation.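 Exposure lasted 48 hours, with cells grown in 96-well plates and compounds tested at five concentrations. TGI: concentration producing complete growth inhibition.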

Test systems include A498 renal; A549 NSCLC; CAKI-1 renal; MCF7 breast; MDA-MB-435; MDA-N; MOLT-4 leukemia; NCI-H23 lung; NCI-H460 lung; OVCAR-3 ovarian; SW-620 colon.
Holding throughout (test): DTP human tumour cell line panel, 48 h

What is called TGI is the concentration at which net growth stops. Lower therefore signals more potent growth arrest. Take `COc1cc2ncnc(Nc3cccc(Cl)c3)c2cc1OC`: the TGI in the assay on A498 renal was 9.84 µM; with A549 NSCLC it was 49 µM; with CAKI-1 renal it was 25.5 µM; in the assay on MCF7 breast, 72.2 µM; with MDA-MB-435 it was 34.1 µM; in the assay with MDA-N, 42.6 µM. Besides, the TGI stood at 54.2 µM in the assay on MOLT-4 leukemia; 44.5 µM in the assay on NCI-H23 lung; 40.7 µM in the assay with NCI-H460 lung; 35.8 µM in the assay on OVCAR-3 ovarian; 45 µM in the assay with SW-620 colon.
Turning to `CCCC/C=C/C/C=C/CCCCCCCCC(=O)OCC1CCCN2CCCCC12` (configuration not stated), the TGI in the assay on A498 renal, in the assay on A549 NSCLC, in the assay on CAKI-1 renal, with MCF7 breast, in the assay on MDA-MB-435 and with MDA-N was above 100 µM each time. The TGI in the assay on MOLT-4 leukemia, with NCI-H23 lung, in the assay on NCI-H460 lung, with OVCAR-3 ovarian and with SW-620 colon was above 100 µM each time.
